What was measured:
Assay type in all cases: in vivo, mouse
[1] = amelioration of leptin resistance (food intake and body weight after leptin) by β3 adrenergic receptor agonist in IR S-2 knockout mice; conditions: repeated intraperitoneal administration for 2 weeks, then leptin 20 mg/kg intraperitoneally, 12 hours after leptin, FIG. 4
Experimental: Moreover, as a control, for the case without intraperitoneal administration of leptin, in which 10 ml/kg of body weight of Tragacanth gum was repeatedly administered orally for 2 weeks, or in which 10 ml/kg of body weight of physiological saline solution was repeatedly intraperitoneally administered for 2 weeks instead of CL-316243, the changes in the amount of food intake, and the changes in body weight (%) were measured.

[2] = changes in body weight after intraperitoneal administration of leptin, wild-type mice; conditions: 8-week wild-type mice; leptin 10 mg/kg of body weight intraperitoneally; 12 hours after administration; FIG. 1
Experimental: For the case where 10 mg/kg of body weight of leptin was intraperitoneally administered into the 8-week wild-type mouse, followed by food intake, the changes in body weight (%) after 12 hours of administration of leptin were measured. Moreover, (i) for the case where 10 mg/kg of body weight or 50 mg/kg of body weight of leptin was intraperitoneally administered into the 8-week IR S-2 knockout mouse, followed by food intake, the changes in body weight (%) after 12 hours of administration of leptin were measured. Furthermore, as a control, for the case where physiological saline was administered instead of leptin to the 8-week wild-type and IR S-2 knockout mice, the changes in body weight (%) were measured. In FIG. 1, (a) is a result for the case in which the physiological saline was administered; (b) is a result for the case in which […] of body weight of leptin was intraperitoneally administered; and (c) is a result for the case in which […] of body weight of leptin was intraperitoneally administered. In FIG. 1, as well as in other figures, the values are expressed as means±S.E. (n=5−9); **, p<0.01; ***, p<0.001; and “N.S.” not significant. The statistical significances of the differences in body weight, etc. were determined by Student's t test (two-tailed).

[3] = changes in body weight after continuous ventricular administration of leptin, IR S-2 knockout mice; conditions: continuous ventricular leptin 10 ng/hr, after one week, FIG. 2
From the text: (§1) Insulin receptor substrate-2 (IR S-2) knockout mice were produced according to Kubota N. et al., Diabetes, November 2000, 49(11), 1880-9. Then, the IR S-2 gene (shown in the upper portion of FIG. 5) was screened from the mouse genome DNA library, and a targeting vector indicated in the middle of FIG. 5 was produced. The targeting vector was introduced into the TT2 ES cell, and ES cell clone with a recombinant was selected (shown in the lower portion of FIG. 5), which was introduced into the 8-celled embryo, thereby obtaining a chimera organism. A male chimeric organism was bred with a C57BL/6J female, thereby obtaining hetero-IR S-2 knockout mice, in which a recombinant gene has been introduced into the germ line. These hetero-knockout mice were bred with each other, thereby obtaining homo-IR S-2 knockout mice.
(§2) In a case where a canula was implanted ventricuarly to a 14-week wild-type mouse, and after starting the continuous ventricular administration of leptin (10 ng/hr), followed by food intake at will, the changes in body weigh (%) were measured after one week of said leptin administration.

[4] = changes in body weight after intraperitoneal administration of leptin, IR S-2 knockout mice; conditions: 8-week IR S-2 knockout mice, 12 hours after administration, FIG. 1
From the text: as §1, with “A male chimeric organism was bred with a C57BL/6J female, thereby obtaining hetero-IR S-2 knockout mice, in which a recombinant gene has been introduced into the germ line. These hetero-knockout mice were bred with each other, thereby obtaining homo-IR S-2 knockout mice.” left out
For the case where 10 mg/kg of body weight of leptin was intraperitoneally administered into the 8-week wild-type mouse, followed by food intake, the changes in body weight (%) after 12 hours of administration of leptin were measured. Moreover, (i) for the case where 10 mg/kg of body weight or 50 mg/kg of body weight of leptin was intraperitoneally administered into the 8-week IR S-2 knockout mouse, followed by food intake, the changes in body weight (%) after 12 hours of administration of leptin were measured. Furthermore, as a control, for the case where physiological saline was administered instead of leptin to the 8-week wild-type and IR S-2 knockout mice, the changes in body weight (%) were measured. […] The statistical significances of the differences in body weight, etc. were determined by Student's t test (two-tailed).

[5] = changes in body weight after continuous ventricular administration of leptin, wild-type mice; conditions: 14-week wild-type mice; continuous ventricular leptin 10 ng/hr; after one week; FIG. 2
Experimental: as §2

CC(Cc1ccc2c(c1)OC(C(=O)[O-])(C(=O)[O-])O2)NCC(O)c1cccc(Cl)c1.[Na+].[Na+] (stereo not drawn) [CL-316243]
leptin resistance (changes in food intake (%) and body weight (%) after leptin) [1]: leptin resistance in IR S-2 knockout mice is ameliorated

leptin: hormone secreted from adipose tissues, regulates appetite and energy metabolism
changes in body weight (%) [2]: significant reduction in weight was observed
changes in body weight (%) [3]: significant reduction in weight was not observed
changes in body weight (%) ([4]; leptin 10 mg/kg of body weight intraperitoneally): significant reduction in weight was not observed
changes in body weight (%) ([4]; leptin 50 mg/kg of body weight intraperitoneally): significant reduction in weight was not observed
changes in body weight (%) [5]: significant reduction in weight was observed
